Results taken from US20240067603A1, “CUBANYL BIGUANIDE COMPOUNDS” (REGENTS OF THE UNIVERSITY OF MINNESOTA, priority 2020, published 2024).
Like-named read-outs stand apart in the source and are kept apart here.

What was measured:
CYP2C8 [1] = target: T1, CYP2C8 (Homo sapiens, UniProt P10632); experiment: CYP2C8-mediated arachidonic acid epoxygenase EET biosynthesis; type: biochemical
T1 construct: purchased Corning; host or cells: insect cells (microsomes)
T1 sequence (P10632 1-490): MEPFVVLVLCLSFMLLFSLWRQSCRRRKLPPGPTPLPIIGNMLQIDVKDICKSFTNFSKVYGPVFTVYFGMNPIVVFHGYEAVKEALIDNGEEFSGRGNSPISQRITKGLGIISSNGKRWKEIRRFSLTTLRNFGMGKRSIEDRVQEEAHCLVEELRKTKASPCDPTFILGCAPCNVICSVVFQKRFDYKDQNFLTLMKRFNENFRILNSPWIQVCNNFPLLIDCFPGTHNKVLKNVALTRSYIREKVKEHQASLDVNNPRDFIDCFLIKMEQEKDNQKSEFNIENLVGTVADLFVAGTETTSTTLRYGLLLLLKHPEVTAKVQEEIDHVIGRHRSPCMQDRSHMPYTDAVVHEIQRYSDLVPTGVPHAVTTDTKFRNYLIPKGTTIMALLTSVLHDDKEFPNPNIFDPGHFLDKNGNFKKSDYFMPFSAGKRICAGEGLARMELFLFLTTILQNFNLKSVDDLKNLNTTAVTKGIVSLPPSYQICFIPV
Experimental: Recombinant Microsomal CYP-mediated EET Biosynthesis. CYP Supersomes™ (Corning, NY) (1 μM, final concentration) were incubated at 37° C. for 30 min in the presence of AA (120 μM) in 50 μl potassium phosphate buffer, (50 mM, pH 7.4), containing 1 mM EDTA and 1 mM NADPH. Reactions were terminated by addition of 50 μL of acetonitrile spiked with ^13C-EET internal standards followed by vigorous vortexing. After centrifugation at 16,000×rpm for 10 minutes to precipitate proteins and other insoluble debris and 80 μL supernatant was transferred into HPLC vials and analyzed by with an LC-ESI/MRM/MS method.
LC-ESI/MRM/MS Method for EET Measurement. EETs were measured by an LC-ESI/MRM/MS analytical method on a ThermoFisher Vantage triple quadrupole mass spectrometer (ThermoFisher, San Jose, CA) coupled with an UltiMate 3000 HPLC (ThermoFisher, San Jose, CA), using argon as the collision gas. Negative ion monitoring was performed at the following diagnostic product ions: 319 m/z→155 m/z for 8,9-EET; 319 m/z→179 m/z for 11,12-EET; 319 m/z→219 m/z for 14,15-EET; 339 m/z→163 m/z for 8,9-[^13C-20]EET; 339 m/z→233 m/z for 11,12-[^13C-20]EET; and 339 m/z→259 m/z for 14,15-[^13C-20]EET. Base-line resolution of EET regioisomers was achieved on a Phenomenex Luna C18 (2) reverse phase capillary column (250×0.5 mm, 5-μm particles) using the following mobile phase combinations: isocratic 5% B for 5 min, gradient 5-70% B for 5 min, hold at 70% for 30 min and then 95% for 10 min; A: 0.01% acetic acid in water, B: 0.01% acetic acid in acetonitrile; 10 μl/min flow rate. A standard curve was obtained by linear regression of the peak area ratio of authentic EET regioisomers against internal standards. The amount of EETs in samples was calculated according to the standard curve.

EO771 = experiment: Oxygen consumption rate (OCR), EO771; type: cell-based, mouse (C57BL/6)
Experimental: Measurement of oxygen consumption rate (OCR). Cells were maintained in growth medium consisting of 10% FBS at 37° C. with 5% CO2 and seeded at 25,000 cells per well in a 96-well XF96 cell culture microplates (Agilent, Santa Clara, CA). An 96 well XF sensor cartridge was hydrated and equilibrated with 200 ul calibrant in each well at 37° C. without CO2 overnight. Growth media was replaced with 150 μL DMEM based assay media (a non-buffered medium including 2 mM L-glutamine but no sodium bicarbonate (buffering agent), glucose, or sodium pyruvate, Agilent, Santa Clara, CA) the next day and cells were incubated CO2 free for 1 hour before the measurement of OCR by a Seahorse XFe Extracellular Flux Analyzer (Agilent, Santa Clara, CA), which measures uptake and excretion of metabolic end products in real time. After baseline measurements, 20 μl assay medium containing control vehicle or drugs were injected into corresponding wells. OCRs were measured periodically and can be reported in pmoles/minute or normalized against baseline measurements before treatment.

AMPKα = AMPKα phosphorylation (Thr172) in MCF-7 cells, Western blotting; type: cell-based, human; conditions: 10 μM, with and without serum, FIG. 7
Experimental: FIG. 7. Effect of HCB on MCF-7 AMPKα phosphorylation (Thr172). MCF-7 cells were grown in complete media to 70% confluency and treated with 10 μM HCB. Cells were harvested at varied time (0-24 hr) and total proteins were extracted and analyzed by Western blotting. For 0% serum experiment, complete media was replaced with serum, phenol red and antibiotics free media 16 hours before treatment. Quantitation results are expressed as mean±S.D. (n=3, * indicates statistically significant difference, p<0.05). MCF-7 cells were grown in complete media (10% serum) to 80% confluence. Left panel: HCB was added to a final concentration of 10 μM in complete media; Right panel: complete media was replaced with serum free media and serum starved for 16 hours before HCB was added to a final concentration of 10 μM. At indicated time points after the addition of HCB, cells were harvested and analyzed by Western blotting. AMPK activation was reported as fractional Thr172 phosphorylation±S.D. (n=3, * indicates statistically significant difference from control).

CYP2C8 [2] = target: T1, CYP2C8; experiment: Stability with recombinant human CYP2C8; type: in vitro ADME; conditions: 10 μM HCB, recombinant human CYP2C8, NADPH 2 mM
Experimental: Stability of HCB with recombinant human CYP3A4 and CYP2C8 enzymes was evaluated. 10 μM HCB was tested wich CYP3A4 and 2C8 (200 pmol/L) (Table 8). NADPH (2 mM) was added as a cofactor. Total volume was 200 μL.
HCB was incubated for 0, 30, or 60 min at 37° C. Incubations were quenched with 2 volumes of acetonitrile followed by centrifugation for 10 min at 16,000 g.

## CCCCCCNC(=N)NC(=N)NCC12C3C4C5C3C1C5C42 (stereo not shown) [HCB, Hexyl Cubanomethyl Biguanide]
CYP2C8 [1]; (±)8,9-EET, read-out: IC50, CYP2C8 biosynthesis of (±)8,9-EET
  IC50: 31 µM
CYP2C8 [1]; (±)11,12-EET, read-out: IC50, CYP2C8 biosynthesis of (±)11,12-EET
  IC50: 52 µM
CYP2C8 [1]; (±)14,15-EET biosynthesis
  fold lower inhibition of CYP2C8 (vs CYP3A4): 10 fold
CYP2C8 [1]; (±)14,15-EET, read-out: inhibition of CYP2C8-mediated biosynthesis of (±)14,15-EET
  IC50: 42 µM
EO771
  OCR Inhibition [HCB] (uM) v vs. control (P < 0.05): 20 µM
AMPKα
  AMPK phosphorylation: potent activation
CYP2C8 [2]
  parent metabolite peak area after 60 min: 99.78%
